Test results as given in US7709002B1, “Mutated ras peptides for generation of CD8+Cytotoxic T lymphocytes” (The United States of America as represented by the …, priority 1996, dated 2010).

Tests used:
[1] = tested on: CD4+ T cell line of RAS patient 43; test: Lymphoproliferation (3H-thymidine uptake) of PBMC cultures / CD4+ T cell line of RAS patient 43; format: cell-based, human; conditions: for Proliferation Response cpm(± SEM) / Proliferation Response SI (stimulation index): 4th IVS
[2] = tested on: CD4+ T cell line of RAS patient 43; test: Proliferation of patient 43 CD4+ T cell line to ras protein from tumor cell extracts captured on pan-ras MAb RAS 10 and presented by autologous BLCL; format: cell-based, human
[3] = tested on: CD4+ T cell line of patient 29; test: Lymphoproliferation (3H-thymidine uptake) of PBMC cultures / CD4+ T cell line of patient 29; format: cell-based, human
Source text: In vitro stimulation (IVS) cycles for evaluation of CD4^+ T cell responses. IVS cycles were established to: (i) amplify detection of a low proliferative response, (ii) compare “pre-immune” to “post-immune” lymphocytes over a period to time for assessment of potential peptide-specific reactivity, and (iii) derive peptide-specific CD4^+ T cell lines in culture for detailed phenotypic and functional characterization. […]
Proliferation response. […] Cells were collected with a TOMTEC MACH II 96 harvester (Wallace, Inc., Gaithersburg, Md.) and incorporated radioactivity was measured by liquid scintillation spectroscopy (1205 Betaplate flat bed LS counter; Wallace). MHC class I or II restriction was analyzed in MAb blocking experiments using anti-HLA-A, B, C (clone G46-2.6) or anti-HLA-DR, anti-HLA-DP or anti-HLA-DQ (clones TU36, HI43 or TU169, respectively) (all from Pharmingen). […] Results were expressed as the mean cpm±SEM of triplicate cultures or stimulation index, which was calculated by dividing the cpm of experimental cultures (means counts of triplicate wells) by the cpm of unstimulated control cultures (mean counts of triplicate wells).

[4] = tested on: T2 cell line as target of CD8+ CTL line of RAS patient 32; test: 51Cr-release cytotoxicity of CD8+ CTL line of RAS patient 32 against peptide-pulsed T2 targets; format: cell-based, human; conditions: peptide 10 μg/ml, IVS cycle 7 (FIG. 5)
Description: FIG. 5. Cytolytic activity by CD8^+ CTL line of RAS patient 32 is peptide-specific. The CD8^+ CTL line of RAS patient 32 (see FIG. 3) was assayed against the T2 cell line as a target, incubated with and without different ras peptides (10 μg/ml), as shown. In parallel, the extent of NK activity was evaluated against K562 cells. Cytotoxicity was determined by ^51Cr-release, and the results expressed at different E/T ratios following IVS cycle 7. Similar results were observed using the second, independently-derived CD8^+ CTL line as described in Table 6.
IVS cycles for evaluation of CD8^+ T cell responses from HLA-A2+Patients. Freshly-thawed PBMC (from ras patients 32 and 33), derived pre-vaccination and post-third vaccination, were enriched in T lymphocytes by passage over nylon wool columns (Robbins Scientific, Sunnyvale, Calif.) and then depleted of CD4^+ T cells by negative selection via panning on anti-CD4 MAb-coated T25 flasks (Applied Immune Sciences, Santa Clara, Calif.). For the first IVS cycle, CD8^+ enriched lymphocytes (5×10^5/well) were cultured in 24-well plates with irradiated, autologous PBMC (5×10^6/well) as APC which had been preincubated for 3 hours with the appropriate mutant ras peptide ([…]) plus human β2-microglobulin (10 μg/ml) (Calbiochem, San Diego, Calif.). […] IL-2 (10 U/ml) was added 3 days later. After an additional 7 days, viable cells (2-5×10^5/well) were re-cultured by weekly stimulation with APC pre-pulsed with peptide/β2-microglobulin, and IL-2 added one day later. After the third or fourth IVS cycle, autologous PBMC were replaced with EBV-transformed, autologous BLCL (5×10^5/well) as APC. […] CTL activity was evaluated from cultures 5 to 6 days after Ag restimulation.
Cytotoxic response. Cytotoxicity was examined by a conventional ^51Cr-release assay, as described (6). Briefly, target cells (i.e. T2, C1R-A2, BLCL, K562) were radiolabeled with 200 μCi of Na2[^51Cr]04 (Amersham) for 60 minutes at 37° C., followed by thorough washing to remove unincorporated isotope. Effectors and targets (1×10^4/well) were incubated in 96-well, U-bottomed plates (Costar) at various effector target (E/T) ratios in the absence and presence of peptide (+/−monoclonal antibody (MAb) directed against CD4, CD8 or HLA-A2 molecules (clone BB7.2 from ATCC)) for up to 6 hours. After incubation, supernatants were collected using a Supernatant Collection System (Skatron, Sterling, Va.) and radioactivity measured in a γ-counter (Packard Instruments, Downers Grove, Ill.). Cytotoxic activity was defined as percent specific release of ^51Cr and determined by the equation: [(experimentalcpm−spontaneouscpm)/maximumcpm−spontaneouscpm)]×100. Results were expressed as the mean±SEM of triplicate cultures. […]

[5] = tested on: C1R-A2 targets / autologous EBV-B cells as targets of CD8+ CTL line of patient 29; test: 51Cr-release cytotoxicity of CD8+ CTL line of patient 29 against C1R-A2 or autologous EBV-B targets; format: cell-based, human; conditions: patient 29 lymphocytes after IVS cycle 7 (FIG. 9A)
Description: FIGS. 9A and 9B. Production of a peptide-specific CD8^+ T cell line from post-vaccinated lymphocytes of patient 29. FIG. 9A: A CD8^+ CTL line was established from post-vaccinated PBMC of patient 29 and assayed for peptide specificity against C1R-A2 targets. Cytotoxicity was determined by ^51Cr-release, and the results expressed at different effector/target ratios following IVS cycle 7. FIG. 9B: Using this CD8^+ CTL line, the requirement for HLA-A2 in peptide presentation (by autologous EBV-B cells as targets) was determined in blocking experiments using MAb (clone BB7.2; ascites=1:30 dilution) directed against that molecule (or using an isotype-matched MAb). […] CD4 and CD8 MAbs were as described for FIGS. 8A and 8b. Control lysis in the absence of peptide or in the presence of ras5-14(Gly12) was <3%.
(§1) Cytotoxic response. Cytotoxicity was examined by a conventional ^51Cr-release assay, as described (6). […] After incubation, supernatants were collected using a Supernatant Collection System (Skatron, Sterling, Va.) and radioactivity measured in a γ-counter (Packard Instruments, Downers Grove, Ill.). Cytotoxic activity was defined as percent specific release of ^51Cr and determined by the equation: [(experimentalcpm−spontaneouscpm)/maximumcpm−spontaneouscpm)]×100. Results were expressed as the mean±SEM of triplicate cultures. […]

[6] = tested on: SW480 colon carcinoma cell line (HLA-A2+, rasVal12+); test: 51Cr-release cytotoxicity of CTL against SW480 colon carcinoma cells; format: cell-based, human
Description: FIGS. 10A and 10B. Anti-ras Val12-specific CTL from patient 29 lyse SW480 tumor targets in the absence of exogenous peptide. FIG. 10A: Anti-ras Val12-specific CD8^+ CTL from patient 29 were assayed against the SW480 colon carcinoma cell line (HLA-A2^+, rasVal12+) in the absence of exogenous peptide, with or without IFN-γ pretreatment (250 U/ml for 24 hr) of the target cells. CD8^+ CTL reactive with the […] peptide were used as an irrelevant effector cell population. Cytotoxicity was determined by ^51Cr-release, and the results expressed at different effector/target ratios. FIG. 10B: In parallel to 10A, anti-ras or anti-MART-1-specific CTL were assayed against SW480 (±IFN-γ pretreatment) at an effector/target ratio of 10/1 in the absence or presence of exogenous peptide (5 μg/ml). […] Flow cytometric analysis of SW480 cells for expression of HLA-A2: untreated=65.4% with MFI of 29.8; IFN-γ-pretreated=99.5% with MFI of 349.6. Flow cytometric analysis of SW480 cells for expression of ICAM-1: untreated=16.0% with MFI of 30.3; IFN-γ-pretreated=98.6% with MFI of 181.9.
as §1
Studies were also carried out to determine whether such peptide-induced CD8^+ CTL could recognize a processed form of the corresponding mutant ras protein. […] In contrast to the CD4^+ analysis, which measured lymphoproliferation to soluble protein, the CD8^+ CTL analysis reflected lytic ability against SW480 cells harboring the naturally-occurring mutation in the absence of exogenously added peptide. […]

human HLA-A2 = molecular target: T1, human HLA-A2 (Homo sapiens, UniProt P04439, D140Y/D185E/D98H/E176V/E277Q/G131W/G231S/I119V/I121R/I166T/I218V/L300P/L318F/N151K/N90K/P208A/P217A/Q86G/Q94H/R138H/R169H/T345S); test: HLA-A2 binding bioassay on T2 cells (flow cytometry); conditions: T2 bioassay
T1 construct: The 174CEM.T2 cell line (“T2”), (transport deletion mutant); endogenous in cells; host or cells: 174CEM.T2 (T2) human cell line

[7] = tested on: HLA-A2+ peptide-pulsed targets; test: Generation and cytotoxicity of ras4-12(V12)-specific CD8+ CTL line from a normal HLA-A2+ donor; format: cell-based, human; conditions: wild-type printed as wild-type ras peptide
[8] = Post-Immune culture, peptide 3 μg/ml
[9] = Post-Immune culture, peptide 10 μg/ml
[10] = Post-Immune culture, peptide 30 μg/ml
[11] = Pre-Immune culture, peptide 3 μg/ml
[12] = Pre-Immune culture, peptide 10 μg/ml
[13] = Pre-Immune culture, peptide 30 μg/ml
[14] = Pre-Immune culture, peptide 100 μg/ml

Lys-Leu-Val-Val-Val-Gly-Ala-Gly-Gly-Val-Gly-Lys-Ser (KLVVVGAGGVGKS) [ras5-17(Gly12)]
Proliferation Response cpm(± SEM) ([1]; Post-Immune culture (post-third vaccination), peptide 100 μg/ml): 640 ± 23 cpm
Proliferation Response SI (stimulation index) [1, 8]: 1.0
Proliferation Response cpm(± SEM) [1, 8]: 694 ± 19 cpm
Proliferation Response SI (stimulation index) [1, 9]: 1.1
Proliferation Response cpm(± SEM) [1, 9]: 725 ± 27 cpm
Proliferation Response SI (stimulation index) [1, 10]: 1.2
Proliferation Response cpm(± SEM) [1, 10]: 819 ± 142 cpm
Proliferation Response SI (stimulation index) ([1]; Post-Immune culture, peptide 100 μg/ml): 1.0
Proliferation Response SI (stimulation index) [1, 11]: 0.9
Proliferation Response cpm(± SEM) [1, 11]: 824 ± 255 cpm
Proliferation Response SI (stimulation index) [1, 12]: 1.1
Proliferation Response cpm(± SEM) [1, 12]: 768 ± 257 cpm
Proliferation Response SI (stimulation index) [1, 13]: 1.0
Proliferation Response cpm(± SEM) [1, 13]: 849 ± 14 cpm
Proliferation Response SI (stimulation index) [1, 14]: 0.9
Proliferation Response cpm(± SEM) [1, 14]: 790 ± 456 cpm
Proliferation, control culture (cpm±SEM) ([1]; T cells+BLCL+peptide 10 μg/ml, IVS cycle 15 (FIG. 2B)): 7,690±383 cpm
Proliferation Response cpm(± SEM) ([2]; Table 5: peptide 10 μg/ml, RAS 10 coating +, BLCL +): 8,844 ± 753 cpm
Proliferation Response cpm(± SEM) ([2]; peptide 30 μg/ml, wells pre-coated with RAS 10, BLCL as APC): 8,130 ± 314 cpm
Proliferation, control culture (cpm±SEM) ([3]; T cells+EBV-B cells+peptide 3 μg/ml, IVS cycle 4 (FIG. 8B), without peptide 19,256±1926): 18,116±1474 cpm
Peptide-induced proliferation of patient 29 post-vaccination PBMC (in words) ([3]; post-vaccination, following IVS (FIG. 8A)): no proliferative response was detectable

Lys-Leu-Val-Val-Val-Gly-Ala-Val-Gly-Val [ras5-14(Val12)]
Sensitization of T2 targets for lysis (in words) [4]: failed to stimulate lysis
Peptide-specific lysis of C1R-A2 targets (in words) [5]: displayed peptide-specific, cell-mediated lysis
Effect of exogenous peptide on anti-rasVal12 CTL-mediated lysis of SW480 ([6]; peptide 5 μg/ml, E/T 10/1 (FIG. 10B), control printed as wild-type ras peptide): enhanced
Lysis of SW480 by anti-MART CTL in presence of exogenous peptide ([6]; with or without IFN-γ (FIG. 10B)): failed to lyse SW480 target cells

ras4-12(G12): proto-ras 9-mer sequence positions 4-12 with Gly at position 12 (YKLVVVGAG)
Binding to HLA-A2 on T2 cells (in words) (human HLA-A2): failed to bind to HLA-A2
Generation of peptide-specific CTL line / lysis of peptide-pulsed targets (in words) [7]: No lysis was detectable
